Data as given in publication PMC11538602, “Substrate binding and catalytic mechanism of UDP-α-D-galactofuranose: β-galactofuranoside β-(1→5)-galactofuranosyltransferase GfsA” (PNAS Nexus, 2024).

Assays:
GfsA = target: T1, GfsA (Aspergillus fumigatus, UniProt B0YDN6); assay: X-ray crystal structure, […] A; type: binding; conditions: crystal with UDP and Mn2+ soaked with 50 mM pNP-Galf, pNP group not resolved, only Galf modelled; acceptor site, D335 and D360
T1 construct: gene AFUB_096220; soluble catalytic domain, residues 43-537 without transmembrane segment; N-terminal 6xHis-tag (pET15b); E. coli Rosetta-gami B (DE3); 58 kDa; homodimer (120 kDa by gel filtration); GT31

[1] = target: GfsA (UDP-α-D-galactofuranose: β-galactofuranoside β-(1→5)-galactofuranosyltransferase) from Aspergillus fumigatus, soluble catalytic domain, residues 43–537 (Aspergillus fumigatus); assay: SEC; gel filtration chromatography of GfsA purified with Ni-agarose; broad single peak, estimated 120 kDa against 58 kDa for the monomer

| stoichiometry N [1] | Molecule | X-ray crystal structure, 2.37 A (GfsA) |
| --- | --- | --- |
| – | OC[C@@H](O)[C@@H]1O[C@@H](O)[C@H](O)[C@H]1O [Galf] | Galf, was present within the depression and hydrogen bonded with D335 and D360 |
| 2 | GfsA (UDP-α-D-galactofuranose: β-galactofuranoside β-(1→5)-galactofuranosyltransferase) from Aspergillus fumigatus, soluble catalytic domain, residues 43–537 (enzyme) | – |
